Each block holds one compound with its values, some of them ahead of it. Calls of active or inactive are those of the source. The rule behind the calls is not given here.
Key:
[1] = system: HT-1080; experiment: Inhibition of ferroptosis in human HT-1080 cells assessed as reversal of RSL3-induced normal morphological loss; type: functional, cell-based
[2] = system: Mus musculus; experiment: (§1) Protection against APAP-induced acute liver injury in overnight fasted C57BL/6 mouse model assessed as decrease in plasma AST level at 10 mg/kg, ip administered 1 hr prior to APAP treatment measured after 12 hrs post-APAP treatment under continuous fasting condition; type: functional, organism-based; conditions: time 13.0 hrs
[3] = system: HT-1080; experiment: Inhibition of RSL3-induced lipid peroxidation in human HT-1080 cells assessed as reduction in MDA adduct accumulation by ELISA; type: functional, cell-based
[4] = Antioxidant activity assessed as DPPH radical scavenging activity at 10 uM incubated for 30 mins by absorbance based assay; type: functional
[5] = system: HT-1080; experiment: Inhibition of RSL3-induced lipid peroxidation in human HT-1080 cells assessed as reduction in green fluorescence by C11-BODIPY581/591 probe based analysis; type: functional, cell-based
[6] = system: HT-1080; experiment: Effect on lipid metabolism in human HT-1080 cells assessed as change in COX2 mRNA level by qRT-PCR analysis; type: functional, cell-based
[7] = system: Mus musculus; experiment: Protection against APAP-induced acute liver injury in overnight fasted C57BL/6 mouse model assessed as decrease in plasma ALT level at 10 mg/kg, ip administered 1 hr prior to APAP treatment measured after 12 hrs post-APAP treatment under continuous fasting condition; type: functional, organism-based; conditions: time 13.0 hrs
[8] = system: SW480; experiment: Inhibition of FIN56-induced ferroptosis in human SW480 cells assessed as cell viability at 200 nM incubated for 24 hrs by CCK8 assay; type: functional, cell-based
[9] = system: HKC; experiment: Inhibition of RSL3-induced ferroptosis in human HKC cells assessed as cell viability at 200 nM incubated for 24 hrs by CCK8 assay; type: functional, cell-based
[10] = system: Mus musculus; experiment: Protection against kidney ischemia-reperfusion injury in C57BL/6 mouse model assessed as decrease in cytoplasmic vacuoles in kidney at 10 mg/kg, ip administered twice 1 hr prior to ischemia onset measured after 24 hrs post-ischemia by H and E staining based analysis; type: functional, organism-based; conditions: time 25.0 hrs
[11] = system: HT-1080; experiment: Effect on glutathione metabolic pathway in human HT-1080 cells assessed as change in SLC7A11 mRNA level by qRT-PCR analysis; type: functional, cell-based
[12] = system: HT-1080; experiment: Inhibition of ferroptosis in human HT-1080 cells assessed as reversal of RSL3-induced cell shrinkage; type: functional, cell-based
[13] = system: HK-2; experiment: Inhibition of RSL3-induced ferroptosis in human HK-2 cells assessed as cell viability at 200 nM incubated for 24 hrs by CCK8 assay; type: functional, cell-based
[14] = system: Mus musculus; experiment: Protection against kidney ischemia-reperfusion injury in C57BL/6 mouse model assessed as decrease in BUN level at 10 mg/kg, ip administered twice 1 hr prior to ischemia onset measured after 24 hrs post-ischemia; type: functional, organism-based; conditions: time 25.0 hrs
[15] = system: HT-1080; experiment: Inhibition of FIN56-induced ferroptosis in human HT-1080 cells assessed as cell viability at 200 nM incubated for 24 hrs by CCK8 assay; type: functional, cell-based
[16] = system: Mus musculus; experiment: Protection against kidney ischemia-reperfusion injury in C57BL/6 mouse model assessed as decrease in renal tubule dilation at 10 mg/kg, ip administered twice 1 hr prior to ischemia onset measured after 24 hrs post-ischemia by H and E staining based analysis; type: functional, organism-based; conditions: time 25.0 hrs
[17] = system: HT-1080; experiment: Effect on lipid metabolism in human HT-1080 cells assessed as change in ALOX15 mRNA level by qRT-PCR analysis; type: functional, cell-based
[18] = system: HT-1080; experiment: Inhibition of RSL3-induced ferroptosis in human HT-1080 cells assessed as cell viability incubated for 24 hrs by CCK8 assay; type: functional, cell-based; conditions: HT-1080, 24 h
[19] = system: Mus musculus; experiment: as §1, with “reversal of native liver architecture” for “decrease in plasma AST level”, “condition by H and E staining based analysis” for “condition”; type: functional, organism-based; conditions: time 13.0 hrs
[20] = system: HTR-8/SVneo; experiment: Inhibition of RSL3-induced ferroptosis in human HTR-8/SVneo cells assessed as cell viability at 200 nM incubated for 24 hrs by CCK8 assay; type: functional, cell-based
[21] = Antioxidant activity assessed as DPPH radical scavenging activity at 20 uM incubated for 30 mins by absorbance based assay; type: functional
[22] = system: HT-1080; experiment: Effect on iron metabolism in human HT-1080 cells assessed as change in TFRC mRNA level by qRT-PCR analysis; type: functional, cell-based
[23] = system: HT-1080; experiment: Effect on iron metabolism in human HT-1080 cells assessed as change in DMT1 mRNA level by qRT-PCR analysis; type: functional, cell-based
[24] = system: HTR-8/SVneo; experiment: Inhibition of FIN56-induced ferroptosis in human HTR-8/SVneo cells assessed as cell viability at 200 nM incubated for 24 hrs by CCK8 assay; type: functional, cell-based
[25] = system: Mus musculus; experiment: Protection against kidney ischemia-reperfusion injury in C57BL/6 mouse model assessed as decrease in brush edges loss in kidney at 10 mg/kg, ip administered twice 1 hr prior to ischemia onset measured after 24 hrs post-ischemia by H and E staining based analysis; type: functional, organism-based; conditions: time 25.0 hrs
[26] = system: Mus musculus; experiment: Protection against APAP-induced acute liver injury in overnight fasted C57BL/6 mouse model assessed as reduction in 4-HNE formation in liver at 10 mg/kg, ip administered 1 hr prior to APAP treatment measured after 12 hrs post-APAP treatment under continuous fasting condition by IHC analysis; type: functional, organism-based; conditions: time 13.0 hrs
[27] = system: HK-2; experiment: Inhibition of FIN56-induced ferroptosis in human HK-2 cells assessed as cell viability at 200 nM incubated for 24 hrs by CCK8 assay; type: functional, cell-based
[28] = system: Mus musculus; experiment: Protection against kidney ischemia-reperfusion injury in C57BL/6 mouse model assessed as decrease in serum creatinine level at 10 mg/kg, ip administered twice 1 hr prior to ischemia onset measured after 24 hrs post-ischemia; type: functional, organism-based; conditions: time 25.0 hrs
[29] = system: HT-1080; experiment: Effect on iron metabolism in human HT-1080 cells assessed as change in FTH1 mRNA level by qRT-PCR analysis; type: functional, cell-based
[30] = system: Mus musculus; experiment: (§2) Protection against APAP-induced acute liver injury in overnight fasted C57BL/6 mouse model assessed as normal pathology of liver at 10 mg/kg, ip administered 1 hr prior to APAP treatment measured after 12 hrs post-APAP treatment under continuous fasting condition by H and E staining based analysis; type: functional, organism-based; conditions: time 13.0 hrs
[31] = system: HT-1080; experiment: Effect on lipid metabolism in human HT-1080 cells assessed as change in ACSL4 mRNA level by qRT-PCR analysis; type: functional, cell-based
[32] = system: KHOS/NP; experiment: Inhibition of RSL3-induced ferroptosis in human KHOS/NP cells assessed as cell viability at 200 nM incubated for 24 hrs by CCK8 assay; type: functional, cell-based
[33] = system: HT-1080; experiment: Inhibition of ferroptosis in human HT-1080 cells assessed as reversal of RSL3-induced membrane rupture; type: functional, cell-based
[34] = system: SW480; experiment: Inhibition of RSL3-induced ferroptosis in human SW480 cells assessed as cell viability at 200 nM incubated for 24 hrs by CCK8 assay; type: functional, cell-based
[35] = system: HT-1080; experiment: Inhibition of RSL3-induced ferroptosis in human HT-1080 cells assessed as cell viability at 0.5 uM incubated for 24 hrs by CCK8 assay; type: functional, cell-based
[36] = system: HKC; experiment: Inhibition of FIN56-induced ferroptosis in human HKC cells assessed as cell viability at 200 nM incubated for 24 hrs by CCK8 assay; type: functional, cell-based
[37] = system: HT-1080; experiment: Inhibition of RSL3-induced ferroptosis in human HT-1080 cells assessed as cell viability at 200 nM incubated for 24 hrs by CCK8 assay; type: functional, cell-based
[38] = system: Mus musculus; experiment: Protection against kidney ischemia-reperfusion injury in C57BL/6 mouse model assessed as decrease in KIM-1 level in kidney at 10 mg/kg, ip administered twice 1 hr prior to ischemia onset measured after 24 hrs post-ischemia by IHC analysis; type: functional, organism-based; conditions: time 25.0 hrs
[39] = system: KHOS/NP; experiment: Inhibition of FIN56-induced ferroptosis in human KHOS/NP cells assessed as cell viability at 200 nM incubated for 24 hrs by CCK8 assay; type: functional, cell-based
[40] = system: Mus musculus; experiment: as §2, with “reduction in necrotic areas” for “normal pathology”; type: functional, organism-based; conditions: time 13.0 hrs
[41] = system: HT-1080; experiment: Effect on glutathione metabolic pathway in human HT-1080 cells assessed as change in GPX4 mRNA level by qRT-PCR analysis; type: functional, cell-based
[42] = system: HT-1080; experiment: Inhibition of ferroptosis in human HT-1080 cells assessed as reversal of RSL3-induced swelling; type: functional, cell-based
[43] = system: HT-1080; experiment: Inhibition of RSL3-induced ferroptosis in human HT-1080 cells assessed as cell viability upto 10 uM incubated for 24 hrs by CCK8 assay; type: functional, cell-based

EC50 [18]: 158 nM
Compound: CC(C)COC(=O)c1cccc(O)c1N
inhibition [1]: Active
Activity [2]: Active
inhibition [3]: Active
Activity [4]: Active
inhibition [5]: Active
Activity [6]: inactive
Activity [7]: Active
inhibition [8]: Active
inhibition [9]: Active
Activity [10]: Active
Activity [11]: inactive
inhibition [12]: Active
inhibition [13]: Active
Activity [14]: Active
inhibition [15]: Active
Activity [16]: Active
Activity [17]: inactive
Activity [19]: Active
inhibition [20]: Active
Activity [21]: Active
Activity [22]: inactive
Activity [23]: inactive
inhibition [24]: Active
Activity [25]: Active
Activity [26]: Active
inhibition [27]: Active
Activity [28]: Active
Activity [29]: inactive
Activity [30]: Active
Activity [31]: inactive
inhibition [32]: Active
inhibition [33]: Active
inhibition [34]: Active
inhibition [35]: Active
inhibition [36]: Active
inhibition [37]: Active
Activity [38]: Active
inhibition [39]: Active
Activity [40]: Active
Activity [41]: inactive
inhibition [42]: Active

EC50 [18]: 181 nM
Compound: Cc1cc2nc(-c3cccc(O)c3N)[nH]c2cc1C
inhibition [1]: Active
Activity [2]: Active
inhibition [3]: Active
inhibition [5]: Active
Activity [6]: inactive
Activity [7]: Active
inhibition [8]: Active
inhibition [9]: Active
Activity [10]: Active
Activity [11]: inactive
inhibition [12]: Active
inhibition [13]: Active
Activity [14]: Active
inhibition [15]: Active
Activity [16]: Active
Activity [17]: inactive
Activity [19]: Active
inhibition [20]: Active
Activity [21]: Active
Activity [22]: inactive
Activity [23]: inactive
inhibition [24]: Active
Activity [25]: Active
Activity [26]: Active
inhibition [27]: Active
Activity [28]: Active
Activity [29]: inactive
Activity [30]: Active
Activity [31]: inactive
inhibition [32]: Active
inhibition [33]: Active
inhibition [34]: Active
inhibition [36]: Active
inhibition [37]: Active
Activity [38]: Active
inhibition [39]: Active
Activity [40]: Active
Activity [41]: inactive
inhibition [42]: Active

EC50 [18]: 46 nM
Compound: Cc1ccc(CSc2nnc(-c3cccc(O)c3N)o2)cc1
inhibition [1]: Active
Activity [2]: Active
inhibition [3]: Active
inhibition [5]: Active
Activity [6]: inactive
Activity [7]: Active
inhibition [8]: Active
inhibition [9]: Active
Activity [10]: Active
Activity [11]: inactive
inhibition [12]: Active
inhibition [13]: Active
Activity [14]: Active
inhibition [15]: Active
Activity [16]: Active
Activity [17]: inactive
Activity [19]: Active
inhibition [20]: Active
Activity [21]: Active
Activity [22]: inactive
Activity [23]: inactive
inhibition [24]: Active
Activity [25]: Active
Activity [26]: Active
inhibition [27]: Active
Activity [28]: Active
Activity [29]: inactive
Activity [30]: Active
Activity [31]: inactive
inhibition [32]: Active
inhibition [33]: Active
inhibition [34]: Active
inhibition [36]: Active
inhibition [37]: Active
Activity [38]: Active
inhibition [39]: Active
Activity [40]: Active
Activity [41]: inactive
inhibition [42]: Active

EC50 [18]: 40.5 nM
Compound: COc1ccc(/C=N/NC(=O)c2cccc(O)c2N)cc1
inhibition [1]: Active
Activity [2]: Active
inhibition [3]: Active
inhibition [5]: Active
Activity [6]: inactive
Activity [7]: Active
inhibition [8]: Active
inhibition [9]: Active
Activity [10]: Active
Activity [11]: inactive
inhibition [12]: Active
inhibition [13]: Active
Activity [14]: Active
inhibition [15]: Active
Activity [16]: Active
Activity [17]: inactive
Activity [19]: Active
inhibition [20]: Active
Activity [21]: Active
Activity [22]: inactive
Activity [23]: inactive
inhibition [24]: Active
Activity [25]: Active
Activity [26]: Active
inhibition [27]: Active
Activity [28]: Active
Activity [29]: inactive
Activity [30]: Active
Activity [31]: inactive
inhibition [32]: Active
inhibition [33]: Active
inhibition [34]: Active
inhibition [36]: Active
inhibition [37]: Active
Activity [38]: Active
inhibition [39]: Active
Activity [40]: Active
Activity [41]: inactive
inhibition [42]: Active

Compound: Nc1c(O)cccc1C(=O)O
inhibition [43]: inactive
